Earlier results on one compound are cited in US20220152000A1, “PROLONGED RELEASE FORMULATION COMPRISING TACROLIMUS” (PHARMATHEN S.A., priority 2019, published 2022).

The conditions of data set [1]: simultaneous ingestion of food versus fasted.
Another data set addresses T1, CYP3A4 isoenzyme (Homo sapiens, UniProt P08684).
T1 construct: metabolized by the CYP3A4 isoenzyme in the gut wall and liver; from tissue; host or cells: gut wall and liver
The following applies: gut wall and liver.

Converted amounts (≈) assume the structure as drawn.

T1 sequence (P08684 whole entry): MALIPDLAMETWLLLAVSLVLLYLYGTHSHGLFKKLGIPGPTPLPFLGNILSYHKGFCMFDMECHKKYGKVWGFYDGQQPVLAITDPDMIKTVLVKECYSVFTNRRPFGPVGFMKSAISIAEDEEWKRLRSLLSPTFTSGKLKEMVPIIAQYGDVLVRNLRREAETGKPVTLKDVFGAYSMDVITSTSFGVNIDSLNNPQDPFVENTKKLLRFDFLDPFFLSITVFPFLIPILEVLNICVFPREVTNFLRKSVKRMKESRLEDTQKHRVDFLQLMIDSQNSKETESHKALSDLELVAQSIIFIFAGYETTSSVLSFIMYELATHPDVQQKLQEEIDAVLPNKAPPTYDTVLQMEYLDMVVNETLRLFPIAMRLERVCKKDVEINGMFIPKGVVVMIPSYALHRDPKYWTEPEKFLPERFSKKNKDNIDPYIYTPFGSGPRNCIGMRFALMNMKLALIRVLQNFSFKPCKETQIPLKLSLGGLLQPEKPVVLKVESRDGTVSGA

In the case of `C=CC[C@@H]1/C=C(\C)C[C@H](C)C[C@H](OC)[C@H]2O[C@@](O)(C(=O)C(=O)N3CCCC[C@H]3C(=O)O[C@H](/C(C)=C/[C@@H]3CC[C@@H](O)[C@H](OC)C3)[C@H](C)[C@@H](O)CC1=O)[C@H](C)C[C@@H]2OC` [Tacrolimus], the Solubility in ethanol (ethanol) was 25 mg/mL (≈ 31.1 mM). Moreover, the “Solubility in hexane, petroleum ether” value (hexane, petroleum ether) is “sparingly soluble”. Moreover, the “Solubility in organic solvents” value (methanol, ethanol, acetone, ethyl acetate, diethyl ether, chloroform, dicloromethane) was “soluble”. In addition, for the setting “water”, the Solubility in water result is listed as “insoluble”. Further, the “Absorption after oral administration, effect of food” value in data set [1] was “negatively influenced by simultaneous ingestion of food”. Also, on CYP3A4 isoenzyme, the “Metabolism by CYP3A4” value was “extensively metabolized”.
